Laboratory results: patent US8440637B2, “Combination treatment for the treatment of hepatitis C virus infection” (priority 2007, dated 2013)
Strand notation (5' to 3'): a small letter for the sugar, then the base; units joined by * are phosphorothioate-linked, units joined directly phosphodiester-linked; [ ] holds rarer units or linkages, { } end groups; capitals alone tell only the bases. l = locked nucleic acid (LNA); [5mC] = 5-methylcytosine; d = 2'-deoxy (DNA)

Tests used:
ApoB-100 mRNA [1] = assay: Serum total cholesterol after dosing apoB antisense oligonucleotides; assay type: in vivo, mouse
Description: Total cholesterol level is measured in plasma using a colometric assay Cholesterol CP from ABX Pentra. The cholesterol is measured following enzymatic hydrolysis and oxidation. 21.5 μL water was added to 1.5 μL plasma. 250 μL reagent is added and within 5 min the cholesterol content is measured at a wavelength of 540 nm. Measurements on each animal was made in duplicates. The sensitivity and linearity was tested with 2 fold diluted control compound (ABX Pentra N control). The relative Cholesterol level was determined by subtraction of the background and presented relative to the cholesterol levels in plasma of saline treated mice.
(§1) In this study 5 mg/kg/dose were dosed on 3 consecutive days (one dose/day i.v.) and animals were sacrificed 24 hours after last dosing. At sacrifice, liver and retro orbital sinus blood was sampled. Serum was prepared from blood for analysis of cholesterol. RNA was isolated from the liver and the expression of ApoB-100 mRNA was measured.
(§2) In this study three different concentrations (10, 15 and 25 mg/kg) of SEQ ID NO 17 (Table 1) and SEQ ID NO 34 (Table 1) were examined for duration of action on ApoB-100 mRNA expression and serum cholesterol level. SEQ ID NO 17 and SEQ ID NO 34 were given as a single dose of 10, 15 or 25 mg/kg to C57BL/6 female mice. Mice were sacrificed at different time points (1, 3, 5 and 8 days) after dosing; liver and serum were examined for ApoB-100 mRNA expression, liver oligonucleotide concentration and cholesterol and ALT, respectively.
Blood serum used to measure cholesterol was sampled at sacrifice. Twenty-four hours after dosing SEQ ID NO 17 serum total cholesterol was reduced 25-40%, and dosing SEQ ID NO 34 gave 40-55% reduction in total cholesterol. At day 3, the total cholesterol level was further reduced: SEQ ID NO 17 gave 70-90% reduction in a dose dependent manner after doing 10, 15 or 25 mg/kg. SEQ ID NO 34 reduced total cholesterol with 90-95% relative to the saline control group. At day 5-8 the total cholesterol level increased in all groups except the group dosed SEQ ID NO 17 at 10 mg/kg. (FIG. 4.).
Blood serum was sampled at sacrifice and used to measure cholesterol. The serum total cholesterol level reflected the mRNA expression of ApoB-100; dose dependent reduction with best effect at 5 days after dosing SEQ ID NO 17 at 1 and 2.5 mg/kg and similar effect at days 3, 5 and 8 after dosing 5 mg/kg (50% reduction). Dose dependent effect was also obtained after dosing SEQ ID NO 34 with best effect at day 3 after dosing 5 mg/kg (70% reduction) with following increase in cholesterol level (60% reduction at day 8 and 45% at day 16).
At sacrifice blood for serum was sampled and used to measure cholesterol.

ApoB-100 mRNA [2] = assay: ApoB-100 mRNA expression in liver by qPCR after dosing apoB antisense oligonucleotides; assay type: in vivo, mouse; conditions: for ApoB-100 mRNA down-regulation (in words): 10, 15 or 25 mg/kg SEQ ID NO 34, 25 mg/kg SEQ ID NO 17; for down regulation of ApoB-100 mRNA relative to saline: single dose of 10, 15 or 25 mg/kg, C57BL/6 female mice, 24 hours after dosing; for reduction of ApoB-100 mRNA expression: day 8
Description: as §1, §2
(§3) Liver sampled at sacrifice was analysed for ApoB-100 mRNA expression by qPCR. Data was normalized to Gapdh and presented relative to the data obtained by dosing saline. One dose of 10, 15 or 25 mg/kg of SEQ ID NO 17 or SEQ ID NO 34 was very effective to down regulate ApoB-100 mRNA in liver (FIG. 3).
A single dose of SEQ ID NO 17 (Table 1) and SEQ ID NO 34 (Table 1) at different concentrations was administered to C57BL/6J mice to find ED50 values for cholesterol. Duration of action was also included in this study, because we previously have seen that maximum effect of a single dose not always was achieved 24 hours after dosing. […] In this study we therefore have chosen lower concentrations (1, 2.5 and 5 mg/kg).
Liver sampled at sacrifice was analysed for ApoB-100 mRNA expression by qPCR. Data was normalized to Gapdh and presented relative to the data obtained by dosing saline. One dose of 10, 15 or 25 mg/kg of SEQ ID NO 17 or SEQ ID NO 34 was very effective to down regulate ApoB-100 mRNA in liver (FIG. 5).
The effect on ApoB-100 mRNA was examined at different days after dosing 1.0 or 5.0 mg/kg (one dose day 0) of the three LNA antisense oligonucleotides 12-mer SEQ ID NO 34 (Table 1), SEQ ID NO 26 (Table 1) 13-mer and 14-mer SEQ ID NO 17 (Table 1) all targeting ApoB mRNA.
as §3, with “Dosing 3* 1” for “One dose of 10, 15”, “5” for “25”, “of SEQ ID NO 34,” for “of”, “26” for “34”, “7). […] SEQ ID NO 17 dosed 3* 1 mg/kg/dose or 5 mg/kg/dose down regulated target mRNA with 50% and 70% respectively.” for “3).”

miR-122a = assay: Melting temperature (Tm) of LNA anti-miR/miR-122a RNA duplex; assay type: physicochemical, human; conditions: Table 2; towards synthetic miR-122a RNA oligonucleotide with phosphorothioate linkages; PS backbone
Description: The melting temperatures were assessed towards the mature miR-122a sequence, using a synthetic miR-122a RNA oligonucleotide with phosphorothioate linkaged.
The LNA anti-miR/miR-122a oligo duplex was diluted to 3 μM in 500 μl RNase free H2O, which was then mixed with 500 μl 2× dimerization buffer (final oligo/duplex conc. 1.5 μM, 2× Tm buffer: 200 mM NaCl, 0.2 mM EDTA, 20 mM NaP, pH 7.0, DEPC treated to remove RNases). The mix was first heated to 95 degrees for 3 minutes, then allowed to cool at room temperature (RT) for 30 minutes.
Following RT incubation Tm was measured on Lambda 40 UV/VIS Spectrophotometer with peltier temperature progammer PTP6 using PE Templab software (Perkin Elmer). The temperature was ramped up from 20° C. to 95° C. and then down again to 20° C., continuously recording absorption at 260 nm. First derivative and local maximums of both the melting and annealing was used to assess melting/annealing point (Tm), both should give similar/same Tm values. For the first derivative 91 points was used to calculate the slope.

[3] = single dose of 10, 15 or 25 mg/kg, 24 hours after dosing
[4] = single dose of 10, 15 or 25 mg/kg, day 3
[5] = liver, 3 doses of 5 mg/kg/dose i.v. on consecutive days, 24 hours after last dosing

| Substance | reduction of serum cholesterol (ApoB-100 mRNA [1]; dosing 3*1 mg/kg) [%] | down regulation of ApoB-100 mRNA (ApoB-100 mRNA [2]; liver, dosing 3*1 mg/kg i.v.) [%] | down regulation of ApoB-100 mRNA (ApoB-100 mRNA [2]; liver, dosing 3*5 mg/kg i.v.) [%] | reduction of serum total cholesterol (ApoB-100 mRNA [1]; [3]) | reduction of serum total cholesterol (ApoB-100 mRNA [1]; [4]) | ApoB-100 mRNA down-regulation (in words) (ApoB-100 mRNA [2]) | down regulation of ApoB-100 mRNA (ApoB-100 mRNA [2]; [5]) | down regulation of ApoB-100 mRNA relative to saline (ApoB-100 mRNA [2]; liver) | Tm (° C.) (miR-122a) [°C] | also measured |
| --- | --- | --- | --- | --- | --- | --- | --- | --- | --- | --- |
| 5′-Gs^MeCsaststsgsgstsastsTs^MeCsA-3′ (antisense lG*l[5mC]*dA*dT*dT*dG*dG*dT*dA*dT*lT*l[5mC]*lA) [SEQ ID NO: 26] | 60 | 60 | 90 | – | – | – | – | – | – | – |
| 5′-Gs^MeCsaststsgsgstsastsTs^MeC-3′ (antisense lG*l[5mC]*dA*dT*dT*dG*dG*dT*dA*dT*lT*l[5mC]) [SEQ ID NO: 34] | 60 | 60 | 90 | 40-55% | 90-95% | completely down-regulated | about 75% | 90-95% | – | effect on serum total cholesterol (in words) (ApoB-100 mRNA [1]; 3 doses of 5 mg/kg/dose i.v., day 3, oligos of different length compared): the best or the most potent effect; reduction of serum total cholesterol (ApoB-100 mRNA [1]; single dose 5 mg/kg, day 3): 70%; reduction of serum total cholesterol (ApoB-100 mRNA [1]; single dose 5 mg/kg, day 8): 60%; reduction of serum total cholesterol (ApoB-100 mRNA [1]; single dose 5 mg/kg, day 16): 45%; reduction of ApoB-100 mRNA expression (ApoB-100 mRNA [2]; single dose 2.5 mg/kg): 75%; ApoB-100 mRNA down regulation (ApoB-100 mRNA [2]; single dose 5 mg/kg, day 16): 75%; down regulation of ApoB-100 mRNA (ApoB-100 mRNA [2]; single dose 5 mg/kg, days 5-16): about 75% |
| 5′-AsGs^MeCsaststsgsgstsastsTs^MeCsA-3′ (antisense lA*lG*l[5mC]*dA*dT*dT*dG*dG*dT*dA*dT*lT*l[5mC]*lA) [SEQ ID NO: 17] | 40 | 50 | 70 | 25-40% | 70-90% | completely down-regulated | about 75% | 70-85% | – | reduction of serum cholesterol (ApoB-100 mRNA [1]; dosing 3*5 mg/kg/dose): 70%; reduction of serum total cholesterol (ApoB-100 mRNA [1]; single dose 5 mg/kg, days 3, 5 and 8): 50%; reduction of ApoB-100 mRNA expression (ApoB-100 mRNA [2]; single dose 5 mg/kg): 75%; duration of dose dependent down regulation of ApoB-100 mRNA (ApoB-100 mRNA [2]; single dose of 1, 2.5 or 5 mg/kg, C57BL/6J mice): 5 days |
| 5′-CCAttgtcacacTCCa-3′ (antisense l[5mC]*l[5mC]*lA*dT*dT*dG*dT*dC*dA*dC*dA*dC*lT*l[5mC]*l[5mC]*dA) [SEQ ID NO: 62] | – | – | – | – | – | – | – | – | 69 | – |
| 5′-AsGs^MeCsaststsgsgstsastsTs^MeCsAsg-3′ (antisense lA*lG*l[5mC]*dA*dT*dT*dG*dG*dT*dA*dT*lT*l[5mC]*lA*dG) [SEQ ID NO: 16] | – | – | – | – | – | – | 25-30% | – | – | reduction of serum total cholesterol (ApoB-100 mRNA [1]; 3 doses of 5 mg/kg/dose i.v., at sacrifice, day 3): about 18% |
| 5′-cCatTgtCacActCca-3′ (antisense dC*l[5mC]*dA*dT*lT*dG*dT*l[5mC]*dA*dC*lA*dC*dT*l[5mC]*dC*dA) [SEQ ID NO: 60] | – | – | – | – | – | – | – | – | 75 | – |
